In US20240343694A1, “PYRIMIDINE DERIVATIVE, METHOD FOR PREPARING SAME, AND PHARMACEUTICAL COMPOSITION FOR PREVENTING OR TREATING CANCER COMPRISING SAME AS ACTIVE INGREDIENT” (KOREA RESERARCH INSTITUTE OF CHEMICAL TECHNOLOGY, priority 2021, published 2024) one finds IC50 data, which are given here for eleven molecules.

The subject of one assay is Ba/F3 HER2 G776delinsVC. Nature of the assay: Growth inhibition of Ba/F3 HER2 mutant cells (CellTiter-Glo). The assay is classed as cell-based. As to conditions: Mus musculus, BaF3, 72 hours. Put shortly: (§1)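 Ba/F3 cells carrying HER2 A775_G776insYVMA or G776delinsVC were seeded at 1,000 cells/well and dosed 24 h later at 0.01-10 μM (8 concentrations including 0). After 72 h, viability was read as cellular ATP by CellTiter-Glo luminescence, and IC50 values were calculated from the 8-point curves.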
A general note: ATP-based viability assays read luminescence as a measure of living cells.

For assay [1], the system named is Ba/F3 HER2 A775_G776insYVMA. The description is as above. The assay is classed as cell-based. As to conditions: Mus musculus, BaF3, 72 hours. An outline of the steps: as §1
The subject of assay [2] is Ba/F3 EGFR V769_D770insASV. In words: Growth inhibition of Ba/F3 EGFR mutant cells (CellTiter-Glo). Type of assay: cell-based. The settings on record: 72 hours. Put shortly:
(§2)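 Ba/F3 cells expressing either EGFR insertion mutant were seeded at 1,000 cells/well and dosed 24 h later at eight concentrations from 0 to 10 μM. After 72 h, viability was read by CellTiter-Glo ATP signal. IC50 (μM) was fitted from the eight-point curves.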

In assay [3] the test system is Ba/F3 EGFR D770_N771insSVD. Described as above. The settings on record: Ba/F3 EGFR-D770-N771ins_SVD, 72 hours. The assay is classed as cell-based. An outline of the steps: as §2
The next assay addresses HER2 A775_G776insYVMA (Homo sapiens (Human), UniProt P04626, INS775YVMA). Nature of the assay: HTRF inhibitory activity against HER2 mutant enzyme. Type of assay: biochemical. As to conditions: recombinant enzyme, 37° C. for 2 hours. Put shortly:
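Recombinant HER2 A775_G776insYVMA preincubated with compound, then […] and biotinylated peptide ([…]) added; 2 h at 37 °C in Tris-HCl pH 7.5 buffer with MgCl2, DTT. HTRF detection (Eu anti-phosphotyrosine/streptavidin-XL665); IC50 from 7 concentrations.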

The target of a further assay is EGFR A763_Y764insFHEA (Homo sapiens (Human), UniProt P00533, INS763FHEA). In words: HTRF inhibitory activity against EGFR mutant enzyme (EGFR A763_Y764insFHEA). Type of assay: biochemical. The settings on record: recombinant enzyme, 37° C. for 2 hours. An outline of the steps: (§3)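 IC50 was derived from 7 concentrations by HTRF: Eu-anti-pTyr and streptavidin-XL665 for 1 h at room temperature, with the 615/665 nm ratio read. The kinase reaction ran 2 h at 37 °C in Tris pH 7.5 buffer with ATP (stated 50 mM) and biotinylated peptide (0.5 mM). Enzyme was preincubated with compound before substrate was added.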
A general note: In TR-FRET formats the signal depends on donor and acceptor labels being close together.

A further assay has as its target EGFR del19 (Homo sapiens (Human), UniProt P00533, DEL746-750). Nature of the assay: HTRF inhibitory activity against EGFR mutant enzyme (EGFR del19). The assay is classed as biochemical. The settings on record: recombinant enzyme, 37° C. for 2 hours. Put shortly: as §3

Chain of EGFR A763_Y764insFHEA (P00533 other isoform, or with tags, fused parts or gaps del 1-694/ins FHEA behind 763 limits assumed): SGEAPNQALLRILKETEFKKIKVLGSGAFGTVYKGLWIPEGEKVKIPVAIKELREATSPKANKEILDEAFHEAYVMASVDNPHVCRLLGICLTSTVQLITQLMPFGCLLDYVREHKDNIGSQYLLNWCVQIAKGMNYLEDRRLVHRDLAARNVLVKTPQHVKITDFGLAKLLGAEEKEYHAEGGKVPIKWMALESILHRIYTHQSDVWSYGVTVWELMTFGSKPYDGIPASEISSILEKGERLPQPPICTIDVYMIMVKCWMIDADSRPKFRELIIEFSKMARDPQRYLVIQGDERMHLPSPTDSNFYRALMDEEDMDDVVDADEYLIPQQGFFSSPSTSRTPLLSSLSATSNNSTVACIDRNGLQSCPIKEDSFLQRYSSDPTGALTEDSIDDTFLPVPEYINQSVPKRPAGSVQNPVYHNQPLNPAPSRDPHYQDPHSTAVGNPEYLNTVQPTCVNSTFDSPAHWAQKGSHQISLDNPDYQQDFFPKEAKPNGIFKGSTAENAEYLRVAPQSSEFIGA
Chain of EGFR del19 (P00533 other isoform, or with tags, fused parts or gaps del 1-668/del 746-750 limits assumed): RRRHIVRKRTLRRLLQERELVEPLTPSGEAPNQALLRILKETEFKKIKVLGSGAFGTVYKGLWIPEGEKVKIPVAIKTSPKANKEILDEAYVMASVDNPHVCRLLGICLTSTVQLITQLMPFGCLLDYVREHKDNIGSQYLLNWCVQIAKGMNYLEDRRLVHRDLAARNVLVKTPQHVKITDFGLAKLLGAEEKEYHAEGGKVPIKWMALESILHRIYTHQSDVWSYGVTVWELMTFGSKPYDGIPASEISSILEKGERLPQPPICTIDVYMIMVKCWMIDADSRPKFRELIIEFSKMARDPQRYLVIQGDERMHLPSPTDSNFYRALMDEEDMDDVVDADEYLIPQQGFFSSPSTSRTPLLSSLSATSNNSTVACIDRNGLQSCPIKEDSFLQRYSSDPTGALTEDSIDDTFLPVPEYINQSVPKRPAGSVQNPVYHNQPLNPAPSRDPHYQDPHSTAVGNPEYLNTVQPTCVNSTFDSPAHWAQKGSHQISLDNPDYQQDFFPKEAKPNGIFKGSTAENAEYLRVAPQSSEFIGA
Chain of HER2 A775_G776insYVMA (P04626 other isoform, or with tags, fused parts or gaps del 1-675/ins YVMA behind 775 limits assumed): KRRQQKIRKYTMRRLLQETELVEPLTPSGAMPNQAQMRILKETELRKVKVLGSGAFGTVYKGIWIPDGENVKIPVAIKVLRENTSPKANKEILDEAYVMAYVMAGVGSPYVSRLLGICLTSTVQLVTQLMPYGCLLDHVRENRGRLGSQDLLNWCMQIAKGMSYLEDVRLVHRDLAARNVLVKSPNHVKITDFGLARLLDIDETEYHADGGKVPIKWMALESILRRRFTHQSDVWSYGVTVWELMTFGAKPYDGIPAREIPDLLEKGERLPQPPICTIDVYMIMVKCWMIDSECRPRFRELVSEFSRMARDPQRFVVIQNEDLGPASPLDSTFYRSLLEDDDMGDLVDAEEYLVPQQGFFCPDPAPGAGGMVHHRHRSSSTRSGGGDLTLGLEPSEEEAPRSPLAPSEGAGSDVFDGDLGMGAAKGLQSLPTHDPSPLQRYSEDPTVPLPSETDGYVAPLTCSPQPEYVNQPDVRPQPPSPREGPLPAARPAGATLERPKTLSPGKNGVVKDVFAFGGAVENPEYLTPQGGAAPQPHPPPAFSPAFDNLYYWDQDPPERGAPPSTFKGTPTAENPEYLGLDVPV

On to `C=CC(=O)Nc1cc(Nc2ncc(Cl)c(Nc3cccc4c3N(S(C)(=O)=O)CC4)n2)c(OC)cc1N(C)CCN(C)C` [Example 55, N-(5-((5-chloro-4-((1-(methylsulfonyl)indolin-7-yl)amino)pyrimidin-2-yl)amino)-2-((2-(dimethylamino)ethyl)(methyl)amino)-4-methoxyphenyl)acrylamide], for which the IC50 – broadly, the point on the concentration scale where inhibition reaches its midpoint – was less than 10 nM with Ba/F3 HER2 G776delinsVC; less than 10 nM in assay [1]; less than 10 nM in assay [2]; less than 10 nM in assay [3]; less than 1 nM on HER2 A775_G776insYVMA; less than 1 nM at EGFR A763_Y764insFHEA. Also, the IC50 on EGFR del19 is less than 1 nM.
On to `C=CC(=O)Nc1cc(Nc2ncc(Cl)c(Nc3cccc4c3N(S(=O)(=O)CC)CC4)n2)c(OC)cc1N(C)CCN(C)C` [Example 56, N-(5-((5-chloro-4-((1-(ethylsulfonyl)indolin-7-yl)amino)pyrimidin-2-yl)amino)-2-((2-(dimethylamino)ethyl)(methyl)amino)-4-methoxyphenyl)acrylamide], for which the half-maximal inhibitory concentration (IC50) in the assay with Ba/F3 HER2 G776delinsVC is less than 10 nM; in assay [1], less than 10 nM; in assay [2], less than 10 nM; in assay [3], less than 10 nM; at HER2 A775_G776insYVMA, less than 1 nM; on EGFR A763_Y764insFHEA, less than 1 nM. In addition, the half-inhibitory concentration (IC50) on EGFR del19 is less than 1 nM.
In the case of `C=CC(=O)Nc1cc(Nc2ncc(Cl)c(Nc3cccc4c3N(S(C)(=O)=O)CC4)n2)c(OC)cc1N(C)CCNC` [Example 57, N-(5-((5-chloro-4-((1-(methylsulfonyl)indolin-7-yl)amino)pyrimidin-2-yl)amino)-4-methoxy-2-(methyl(2-(methylamino)ethyl)amino)phenyl)acrylamide], the IC50 in the assay on Ba/F3 HER2 G776delinsVC is 50 to 100 nM; in assay [1] it was 50 to 100 nM; in assay [2], 50 to 100 nM; in assay [3], 50 to 100 nM; on HER2 A775_G776insYVMA, less than 1 nM; on EGFR A763_Y764insFHEA, less than 1 nM. Besides, the 50% inhibitory concentration (IC50) at EGFR del19 is less than 1 nM.
Consider `C=CC(=O)Nc1cc(Nc2ncc(Cl)c(Nc3cccc4c3N(S(C)(=O)=O)CC4)n2)c(OC)cc1N1CCC(N(C)C)CC1` [Example 58, N-(5-((5-chloro-4-((1-(methylsulfonyl)indolin-7-yl)amino)pyrimidin-2-yl)amino)-2-(4-(dimethylamino)piperidin-1-yl)-4-methoxyphenyl)acrylamide], for which the IC50 in the assay with Ba/F3 HER2 G776delinsVC is less than 10 nM; in assay [1], 50 to 100 nM; in assay [2], 50 to 100 nM; in assay [3], 50 to 100 nM; at HER2 A775_G776insYVMA, 90 nM; at EGFR A763_Y764insFHEA, 10 nM. Besides, on EGFR del19, the IC50 was less than 1 nM.
As to `C=CC(=O)Nc1cc(Nc2ncc(Cl)c(Nc3cccc4c3N(S(C)(=O)=O)CC4)n2)c(OC)cc1N1CCC(N2CCN(C)CC2)CC1` [Example 59, N-(5-((5-chloro-4-((1-(methylsulfonyl)indolin-7-yl)amino)pyrimidin-2-yl)amino)-4-methoxy-2-(4-(4-methylpiperazin-1-yl)piperidin-1-yl)phenyl)acrylamide], the IC50 in the assay on Ba/F3 HER2 G776delinsVC is 50 to 100 nM; in assay [1] it was 50 to 100 nM; in assay [2], 50 to 100 nM; in assay [3], 50 to 100 nM; at HER2 A775_G776insYVMA, 20 nM; on EGFR A763_Y764insFHEA, less than 1 nM. Also, the IC50 at EGFR del19 is less than 1 nM.
Consider `C=CC(=O)Nc1cc(Nc2ncc(Cl)c(Nc3ccc(C)c(C)c3N(C)C(C)=O)n2)c(OC)cc1N(C)CCN(C)C` [Example 83, N-(5-((5-chloro-4-((3,4-dimethyl-2-(N-methylacetamido)phenyl)amino)pyrimidin-2-yl)amino)-2-((2-(dimethylamino)ethyl)(methyl)amino)-4-methoxyphenyl)acrylamide], for which the IC50 is less than 10 nM in the assay on Ba/F3 HER2 G776delinsVC; greater than 100 nM in assay [1]; 30 to 50 nM in assay [2]; 30 to 50 nM in assay [3]; 374 nM at HER2 A775_G776insYVMA; 19 nM on EGFR A763_Y764insFHEA. Also, on EGFR del19, the IC50 turned out to be 3 nM.
For `C=CC(=O)Nc1cc(Nc2ncc(Cl)c(Nc3ccc(C)c(C)c3NC(C)=O)n2)c(OC)cc1N(C)CCN(C)C` [Example 84, N-(5-((4-((2-acetamido-3,4-dimethylphenyl)amino)-5-chloropyrimidin-2-yl)amino)-2-((2-(dimethylamino)ethyl)(methyl)amino)-4-methoxyphenyl)acrylamide], the IC50 with Ba/F3 HER2 G776delinsVC is less than 10 nM; in assay [1] it was greater than 100 nM; in assay [2] it was 30 to 50 nM; in assay [3], 30 to 50 nM; on HER2 A775_G776insYVMA, 52 nM; at EGFR A763_Y764insFHEA it was 3 nM. In addition, the half-maximal inhibitory concentration (IC50) at EGFR del19 turned out to be 1 nM.
As to `C=CC(=O)Nc1cc(Nc2ncc(Cl)c(Nc3cccc(C)c3N(C)C(C)=O)n2)c(OC)cc1N(C)CCN(C)C` [Example 85, N-(5-((5-chloro-4-((3-methyl-2-(N-methylacetamido)phenyl)amino)pyrimidin-2-yl)amino)-2-((2-(dimethylamino)ethyl)(methyl)amino)-4-methoxyphenyl)acrylamide], the IC50 in the assay on Ba/F3 HER2 G776delinsVC is 10 to 30 nM; in assay [1] it was greater than 100 nM; in assay [2], 30 to 50 nM; in assay [3], 30 to 50 nM; on HER2 A775_G776insYVMA it was 871 nM; at EGFR A763_Y764insFHEA it was 43 nM. The half-maximal inhibitory concentration (IC50) on EGFR del19 was 18 nM.
With `C=CC(=O)Nc1cc(Nc2ncc(Cl)c(Nc3cccc(C)c3NC(C)=O)n2)c(OC)cc1N(C)CCN(C)C` [Example 86, N-(5-((4-((2-acetamido-3-methylphenyl)amino)-5-chloropyrimidin-2-yl)amino)-2-((2-(dimethylamino)ethyl)(methyl)amino)-4-methoxyphenyl)acrylamide], the IC50 in the assay with Ba/F3 HER2 G776delinsVC was less than 10 nM; in assay [1], greater than 100 nM; in assay [2], 30 to 50 nM; in assay [3], 30 to 50 nM; at HER2 A775_G776insYVMA, 157 nM; at EGFR A763_Y764insFHEA it was 20 nM. Also, the IC50 on EGFR del19 is 2 nM.
For the molecule `C=CC(=O)Nc1cc(Nc2ncc(Cl)c(Nc3ccc(C)cc3N(C)C(C)=O)n2)c(OC)cc1N(C)CCN(C)C` [Example 87, N-(5-((5-chloro-4-((4-methyl-2-(N-methylacetamido)phenyl)amino)pyrimidin-2-yl)amino)-2-((2-(dimethylamino)ethyl)(methyl)amino)-4-methoxyphenyl)acrylamide], the IC50 in the assay with Ba/F3 HER2 G776delinsVC is less than 10 nM; in assay [1] it was greater than 100 nM; in assay [2] it was 30 to 50 nM; in assay [3], 30 to 50 nM; on HER2 A775_G776insYVMA, 107 nM; at EGFR A763_Y764insFHEA, 24 nM. The IC50 at EGFR del19 was 4 nM.
Turning to `C=CC(=O)Nc1cc(Nc2ncc(Cl)c(Nc3ccc(C)cc3NC(C)=O)n2)c(OC)cc1N(C)CCN(C)C` [Example 88, N-(5-((4-((2-acetamido-4-methylphenyl)amino)-5-chloropyrimidin-2-yl)amino)-2-((2-(dimethylamino)ethyl)(methyl)amino)-4-methoxyphenyl)acrylamide], the IC50 with Ba/F3 HER2 G776delinsVC was less than 10 nM; in assay [1], 30 to 50 nM; in assay [2], 10 to 30 nM; in assay [3] it was 10 to 30 nM; on HER2 A775_G776insYVMA, 14 nM; on EGFR A763_Y764insFHEA it was 2 nM. The IC50 at EGFR del19 was less than 1 nM.
